Measured values reported in article PMC10436550, “Subacute toxicity evaluations of LPM3480392 in rats, a full µ-opioid receptor biased agonist” (Frontiers in Pharmacology, 2023).

Test system: Sprague Dawley (SD) rats
Experiment: Organ weight and ratios, 4-week subacute toxicity study
Type: in vivo, rat
Settings: male rats
Experimental: Complete gross necropsies were conducted on all surviving animals at the end of treatment (the day after the last dosing) and recovery periods. The following selected organs were weighed and evaluated in terms of organ/body or organ/brain weight ratios: brain, kidneys, adrenals, testes, ovaries, uterus, epididymides, thymus, spleen, heart and liver. Paired organs were weighed together. Organ-to-body weight ratio = Organ weight(g)/Body weight(g) × 100%, and Organ-to-brain weight ratio = Organ weight(g)/Brain weight(g) × 100%.

[1] = 0.6 mg/kg/day, End of recovery phase
[2] = 1.2 mg/kg/day, End of dosing phase
[3] = 1.2 mg/kg/day, End of recovery phase
[4] = 2.4 mg/kg/day, End of dosing phase
[5] = 2.4 mg/kg/day, End of recovery phase

For `Fc1ccc([C@]2(CCNCc3cccc(Cl)c3)CCO[C@]3(CCOC3)C2)nc1` [LPM3480392], the “Organ weight, Heart” value [1] was 1.431 ± 0.112 g, the “Organ weight, Liver” value [1] was 9.943 ± 1.685 g and the “Organ weight, Spleen” value [1] was 0.774 ± 0.108 g. The “Organ weight, Thymus” value [1] was 0.470 ± 0.076 g, the “Organ-to-body weight ratio, Adrenal gland” value [1] was 0.013 ± 0.002% and the “Organ-to-body weight ratio, Brain” value [1] was 0.534 ± 0.040%. The “Organ-to-body weight ratio, Epididymis” value [1] was 0.338 ± 0.036%, the “Organ-to-body weight ratio, Heart” value [1] was 0.337 ± 0.020% and the “Organ-to-body weight ratio, Liver” value [1] was 2.327 ± 0.250%. For the same compound, the “Organ-to-body weight ratio, Spleen” value [1] was 0.182 ± 0.018%, the “Organ-to-body weight ratio, Thymus” value [1] was 0.110 ± 0.016% and the “Organ-to-brain weight ratio, Adrenal gland” value [1] was 2.52 ± 0.37%. For the same compound, the “Organ-to-brain weight ratio, Epididymis” value [1] was 63.42 ± 6.91%, the “Organ-to-brain weight ratio, Heart” value [1] was 63.29 ± 4.73% and the “Organ-to-brain weight ratio, Liver” value [1] was 441.01 ± 85.94%. For the same compound, the “Organ-to-brain weight ratio, Spleen” value [1] was 34.27 ± 5.33%, the “Organ-to-brain weight ratio, Thymus” value [1] was 20.83 ± 3.66% and the “Terminal BW” value [1] was 425.2 ± 26.4 g. The “Organ weight, Adrenal gland” value [2] was 0.052 ± 0.007 g, the “Organ weight, Brain” value [2] was 2.015 ± 0.137 g and the “Organ weight, Epididymis” value [2] was 1.020 ± 0.040 g. The “Organ weight, Heart” value [2] was 1.199 ± 0.140 g, the “Organ weight, Liver” value [2] was 7.643 ± 0.801 g and the “Organ weight, Spleen” value [2] was 0.703 ± 0.103 g. The “Organ weight, Thymus” value [2] was 0.425 ± 0.115 g, the “Organ-to-body weight ratio, Adrenal gland” value [2] was 0.017 ± 0.002% and the “Organ-to-body weight ratio, Brain” value [2] was 0.655 ± 0.040%. For the same compound, the “Organ-to-body weight ratio, Epididymis” value [2] was 0.332 ± 0.030%, the “Organ-to-body weight ratio, Heart” value [2] was 0.388 ± 0.025 % and the “Organ-to-body weight ratio, Liver” value [2] was 2.473 ± 0.100%. The “Organ-to-body weight ratio, Spleen” value [2] was 0.227 ± 0.026%, the “Organ-to-body weight ratio, Thymus” value [2] was 0.136 ± 0.028% and the “Organ-to-brain weight ratio, Adrenal gland” value [2] was 2.59 ± 0.37%. For the same compound, the “Organ-to-brain weight ratio, Epididymis” value [2] was 50.88 ± 4.79%, the “Organ-to-brain weight ratio, Heart” value [2] was 59.48 ± 5.54% and the “Organ-to-brain weight ratio, Liver” value [2] was 378.95 ± 25.83%. For the same compound, the “Organ-to-brain weight ratio, Spleen” value [2] was 35.01 ± 5.62%, the “Organ-to-brain weight ratio, Thymus” value [2] was 20.87 ± 4.42% and the “Terminal BW” value [2] was 308.5 ± 22.5 g. The “Organ weight, Adrenal gland” value [3] was 0.060 ± 0.010 g, the “Organ weight, Brain” value [3] was 2.177 ± 0.033 g and the “Organ weight, Epididymis” value [3] was 1.351 ± 0.094 g. For the same compound, the “Organ weight, Heart” value [3] was 1.483 ± 0.081 g, the “Organ weight, Liver” value [3] was 10.423 ± 1.077 g and the “Organ weight, Spleen” value [3] was 0.814 ± 0.089 g. For the same compound, the “Organ weight, Thymus” value [3] was 0.393 ± 0.042 g, the “Organ-to-body weight ratio, Adrenal gland” value [3] was 0.014 ± 0.003% and the “Organ-to-body weight ratio, Brain” value [3] was 0.514 ± 0.031%. For the same compound, the “Organ-to-body weight ratio, Epididymis” value [3] was 0.318 ± 0.010%, the “Organ-to-body weight ratio, Heart” value [3] was 0.349 ± 0.017% and the “Organ-to-body weight ratio, Liver” value [3] was 2.451 ± 0.149%. The “Organ-to-body weight ratio, Spleen” value [3] was 0.192 ± 0.022%, the “Organ-to-body weight ratio, Thymus” value [3] was 0.093 ± 0.013% and the “Organ-to-brain weight ratio, Adrenal gland” value [3] was 2.74 ± 0.50%. For the same compound, the “Organ-to-brain weight ratio, Epididymis” value [3] was 62.05 ± 4.34%, the “Organ-to-brain weight ratio, Heart” value [3] was 68.08 ± 3.40% and the “Organ-to-brain weight ratio, Liver” value [3] was 478.76 ± 49.84%. The “Organ-to-brain weight ratio, Spleen” value [3] was 37.41 ± 4.09%, the “Organ-to-brain weight ratio, Thymus” value [3] was 18.03 ± 1.83% and the “Terminal BW” value [3] was 424.6 ± 23.0 g. For the same compound, the “Organ weight, Adrenal gland” value [4] was 0.052 ± 0.004 g, the “Organ weight, Brain” value [4] was 2.031 ± 0.066 g and the “Organ weight, Epididymis” value [4] was 0.904 ± 0.104 g. For the same compound, the “Organ weight, Heart” value [4] was 1.172 ± 0.071 g, the “Organ weight, Liver” value [4] was 7.348 ± 0.497 g and the “Organ weight, Spleen” value [4] was 0.686 ± 0.129 g. For the same compound, the “Organ weight, Thymus” value [4] was 0.394 ± 0.075 g, the “Organ-to-body weight ratio, Adrenal gland” value [4] was 0.018 ± 0.002% and the “Organ-to-body weight ratio, Brain” value [4] was 0.689 ± 0.061%. The “Organ-to-body weight ratio, Epididymis” value [4] was 0.305 ± 0.028%, the “Organ-to-body weight ratio, Heart” value [4] was 0.397 ± 0.037 % and the “Organ-to-body weight ratio, Liver” value [4] was 2.487 ± 0.195%. The “Organ-to-body weight ratio, Spleen” value [4] was 0.231 ± 0.033%, the “Organ-to-body weight ratio, Thymus” value [4] was 0.132 ± 0.019% and the “Organ-to-brain weight ratio, Adrenal gland” value [4] was 2.59 ± 0.24%. The “Organ-to-brain weight ratio, Epididymis” value [4] was 44.58 ± 5.64 %, the “Organ-to-brain weight ratio, Heart” value [4] was 57.77 ± 3.83% and the “Organ-to-brain weight ratio, Liver” value [4] was 361.66 ± 16.84 %. The “Organ-to-brain weight ratio, Spleen” value [4] was 33.71 ± 5.76%, the “Organ-to-brain weight ratio, Thymus” value [4] was 19.36 ± 3.42% and the “Terminal BW” value [4] was 296.6 ± 24.2 g. The “Organ weight, Adrenal gland” value [5] was 0.055 ± 0.009 g, the “Organ weight, Brain” value [5] was 2.185 ± 0.147 g and the “Organ weight, Epididymis” value [5] was 1.239 ± 0.114 g. For the same compound, the “Organ weight, Heart” value [5] was 1.360 ± 0.262 g, the “Organ weight, Liver” value [5] was 9.451 ± 1.196 g and the “Organ weight, Spleen” value [5] was 0.775 ± 0.172 g. The “Organ weight, Thymus” value [5] was 0.386 ± 0.038 g, the “Organ-to-body weight ratio, Adrenal gland” value [5] was 0.014 ± 0.002% and the “Organ-to-body weight ratio, Brain” value [5] was 0.559 ± 0.076%. The “Organ-to-body weight ratio, Epididymis” value [5] was 0.315 ± 0.026%, the “Organ-to-body weight ratio, Heart” value [5] was 0.342 ± 0.024% and the “Organ-to-body weight ratio, Liver” value [5] was 2.391 ± 0.064%. For the same compound, the “Organ-to-body weight ratio, Spleen” value [5] was 0.194 ± 0.023%, the “Organ-to-body weight ratio, Thymus” value [5] was 0.099 ± 0.013% and the “Organ-to-brain weight ratio, Adrenal gland” value [5] was 2.55 ± 0.51%. For the same compound, the “Organ-to-brain weight ratio, Epididymis” value [5] was 56.82 ± 5.54%, the “Organ-to-brain weight ratio, Heart” value [5] was 62.11 ± 10.37% and the “Organ-to-brain weight ratio, Liver” value [5] was 432.91 ± 49.50%. For the same compound, the “Organ-to-brain weight ratio, Spleen” value [5] was 35.31 ± 6.72%, the “Organ-to-brain weight ratio, Thymus” value [5] was 17.77 ± 2.29% and the “Terminal BW” value [5] was 395.7 ± 53.7 g.
